Experimental data taken from patent publication US11466005B2, “Tricyclic compounds” (JACOBIO PHARMACEUTICALS CO., LTD., priority 2018, dated 2022).

Key:
BRD4(BD1) = BRD4(BD1) (Homo sapiens (Human), UniProt O60885); assay: BRD4(BD1) biochemical binding assay (HTRF); details: biotinylated H4 derived acetylated peptide
Description: 1. BRD4(BD1) Binding Assays
The BRD4(BD1) biochemical binding assay was performed by Sundia MediTech Co. Ltd. in 384-well white plate (OptiPlate-384, PerkinElmer) using HTRF technology.
Briefly, 20 nL of compounds were transferred to the 384-well plate by Echo® 550 liquid handler (Labcyte, USA), then 5 μL of BRD4(BD1) (Reaction Biology Company, RD-11-157) solution or the assay buffer was added to each well. After incubating at RT for 15 min, 5 μL of the biotinylated H4 derived acetylated peptide (synthesized by GL Biochem (Shanghai) Ltd) and 10 μL of the detection solution (Cisbio Assay) were added to each well. After incubating for 1 h at RT, the HTRF signal was measure at 615 nm and 665 nm using the EnVision Multilabel Plate Reader (PerkinElmer, USA). Results were analyzed with a two-wavelength signal ratio: intensity (665 nm)/intensity (615 nm). The inhibition percentage in the presence of the compound was calculated according to the equation, Percent inhibition=(Max−Signal)/(Max−Min)*100%. Fit the data in GraphPad Prism V5.0 software (San Diego, Calif.) to obtain IC50 values with nonlinear regression analysis using equation, Y=Bottom+(Top−Bottom)/(1+10^((Log IC50−X)×HillSlope), where Y stands for inhibition percentage and X stands for compound concentration.

MV-4-11 cells = assay: MV-4-11 cell proliferation assay (MTS); format: cell-based; details: Homo sapiens, MV4-11, 72 h, 3 days culture
Description: 2. Cell Proliferation Assay
MV-4-11 cell proliferation analysis was conducted by the MIS (3-(4,5-dimethylthiazol-2-yl)-5-(3-carboxymethoxyphenyl)-2-(4-sulfophenyl)-2H-tetrazolium, inner salt) assay. Briefly, MV-4-11 cells will be cultured in IMDM (Iscove's Modified Dubecco's Medium) medium supplemented with 10% (v/v) FBS (fetal bovine serum), under the temperature of 37° C., […] and 95% humidity. The cells will be harvested respectively during the logarithmic growth period and counted with hemocytometer. The cell viability is over […] by trypan blue exclusion. Adjust MV-4-11 cells concentrations to 1.2×10^5 cells/mL with complete medium. Add 100 μL cell suspensions to 96-well plates (triplicates for each cell concentration), the final cell densities are 1.2×10^4 cells/well. The next day, dissolve the test compound with DMSO as stock solution. Dispense 5 μL of the stock solution in 1 mL culture media and add 25 μL drug media into 96-well plates. After serially diluting with culture media, the final concentration of the compound will be 0, 0.03, 0.1, 0.3, 1, 3, 10, 30, 100 nM. The plates will be cultured for 3 days, then measured by means of MTS assay. Add PMS (phenazinium methosulfate) solution to MITS solution (1:20) immediately before addition to the culture plate containing cells. Pipet 20 μL of the combined MTS/PMS Solution into each well of the 96 well assay plate containing 100 μL of cells in culture medium. Incubate the plate for 1-4 hours at 37° C. in a humidified, 5% CO2 atmosphere. Record the absorbance at 490 nm using a microplate spectrophotometer (Envision®, PeikinElmer). Fit the data using GraphPad 5.0 and obtain IC50 values.

SMILES | IC50 (BRD4(BD1)) [nM] | IC50 (MV-4-11 cells) [nM]
Cc1noc(C)c1-c1cnc2c3c(c(C(C)(C)O)nn3C)n([C@H](c3ccccc3)C3CCOCC3)c2c1 [Compound 1, (S)-2-(6-(3,5-dimethylisoxazol-4-yl)-1-methyl-4-(phenyl(tetrahydro-2H-pyran-4-yl)methyl)-1,4-dihydropyrazolo[3′,4′:4,5]pyrrolo[3,2-b]pyridin-3-yl)propan-2-ol] | 0.48 | 0.89
Cc1noc(C)c1-c1cnc2c3c(c(C(C)(C)O)nn3C)n([C@H](c3ncccc3F)C3CCOCC3)c2c1 [Compound 2, (S)-2-(6-(3,5-dimethylisoxazol-4-yl)-4-((3-fluoropyridin-2-yl)(tetrahydro-2H-pyran-4-yl)methyl)-1-methyl-1,4-dihydropyrazolo[3′,4′:4,5]pyrrolo[3,2-b]pyridin-3-yl)propan-2-ol] | 0.35 | 0.72
Cc1nnn(C)c1-c1cnc2c3c(c(C(C)(C)O)nn3C)n(C(CCC(F)(F)F)c3ccccc3)c2c1 (centres unmarked) [Compound 3, 2-(6-(1,4-Dimethyl-1H-1,2,3-triazol-5-yl)-1-methyl-4-(4,4,4-trifluoro-1-phenylbutyl)-1,4-dihydropyrazolo[3′,4′:4,5]pyrrolo[3,2-b]pyridin-3-yl)propan-2-ol] | 0.66 | 6.06
Cc1nnn(C)c1-c1cnc2c3c(c(C(C)(C)O)nn3C)n(C(CCC(F)(F)F)c3ncccc3F)c2c1 (centres unmarked) [Compound 4, 2-(6-(1,4-Dimethyl-1H-1,2,3-triazol-5-yl)-1-methyl-4-(4,4,4-trifluoro-1-(3-fluoropyridin-2-yl)butyl)-1,4-dihydropyrazolo[3′,4′:4,5]pyrrolo[3,2-b]pyridin-3-yl)propan-2-ol] | 0.57 | 3.13
Cc1cccnc1C(C1CCOCC1)n1c2cc(-c3c(C)nnn3C)cnc2c2c1c(C(C)(C)O)nn2C (centres unmarked) [Compound 5, 2-(6-(1,4-Dimethyl-1H-1,2,3-triazol-5-yl)-1-methyl-4-((3-methylpyridin-2-yl)(tetrahydro-2H-pyran-4-yl)methyl)-1,4-dihydropyrazolo[3′,4′:4,5]pyrrolo[3,2-b]pyridin-3-yl)propan-2-ol] | 0.59 | 1.24
Cc1nnn(C)c1-c1cnc2c3c(c(C(C)(C)O)nn3C)n([C@H](c3ccccc3)C3CCOCC3)c2c1 [Compound 6, (S)-2-(6-(1,4-dimethyl-1H-1,2,3-triazol-5-yl)-1-methyl-4-(phenyl(tetrahydro-2H-pyran-4-yl)methyl)-1,4-dihydropyrazolo[3′,4′:4,5]pyrrolo[3,2-b]pyridin-3-yl)propan-2-ol] | 0.49 | 1.1
Cc1nnn(C)c1-c1cnc2c3c(c(C(C)(C)O)nn3C)n([C@H](c3ncccc3F)C3CCOCC3)c2c1 [Compound 7, (S)-2-(6-(1,4-dimethyl-1H-1,2,3-triazol-5-yl)-4-((3-fluoropyridin-2-yl)(tetrahydro-2H-pyran-4-yl)methyl)-1-methyl-1,4-dihydropyrazolo[3′,4′:4,5]pyrrolo[3,2-b]pyridin-3-yl)propan-2-ol] | 0.97 | 0.7
COC(=O)c1nn(C)c2c3ncc(-c4c(C)nnn4C)cc3n([C@H](c3ncccc3F)C3CCOCC3)c12 [Compound 7-2, (S)-Methyl 6-(1,4-dimethyl-1H-1,2,3-triazol-5-yl)-4-((3-fluoropyridin-2-yl)(tetrahydro-2H-pyran-4-yl)methyl)-1-methyl-1,4-dihydropyrazolo[3′,4′:4,5]pyrrolo[3,2-b]pyridine-3-carboxylate] |  | 1.11
Cc1cccnc1C(C1CCOCC1)n1c2cc(-c3c(C)noc3C)cnc2c2c1c(C(C)(C)O)nn2C (centres unmarked) [Compound 8, 2-(6-(3,5-dimethylisoxazol-4-yl)-1-methyl-4-((3-methylpyridin-2-yl)(tetrahydro-2H-pyran-4-yl)methyl)-1,4-dihydropyrazolo[3′,4′:4,5]pyrrolo[3,2-b]pyridin-3-yl)propan-2-ol] | 12 | 31.6
Cc1ccccc1C(C1CCOCC1)n1c2cc(-c3c(C)noc3C)cnc2c2c1c(C(C)(C)O)nn2C (centres unmarked) [Compound 9, 2-(6-(3,5-dimethylisoxazol-4-yl)-1-methyl-4-((tetrahydro-2H-pyran-4-yl)(o-tolyl)methyl)-1,4-dihydropyrazolo[3′,4′:4,5]pyrrolo[3,2-b]pyridin-3-yl)propan-2-ol] | 0.99 | 5.01
Cc1nnn(C)c1-c1cnc2c3c(c(C(C)(C)O)nn3C)n(C(CCC(F)(F)F)c3cocn3)c2c1 (centres unmarked) [Compound 10, 2-(6-(1,4-dimethyl-1H-1,2,3-triazol-5-yl)-1-methyl-4-(4,4,4-trifluoro-1-(oxazol-4-yl)butyl)-1,4-dihydropyrazolo[3′,4′:4,5]pyrrolo[3,2-b]pyridin-3-yl)propan-2-ol] | 2.2 | 34
Cc1nnn(C)c1-c1cnc2c3c(c(C(N)=O)nn3C)n(C(c3ncccc3F)C3CCOCC3)c2c1 (centres unmarked) [Compound 21, 6-(1,4-Dimethyl-1H-1,2,3-triazol-5-yl)-4-((3-fluoropyridin-2-yl)(tetrahydro-2H-pyran-4-yl)methyl)-1-methyl-1,4-dihydropyrazolo[3′,4′:4,5]pyrrolo[3,2-b]pyridine-3-carboxamide] |  | 0.77
COc1ccncc1C(C1CCOCC1)n1c2cc(-c3c(C)nnn3C)cnc2c2c1c(C(C)(C)O)nn2C (centres unmarked) [Compound 25, 2-(6-(1,4-dimethyl-1H-1,2,3-triazol-5-yl)-4-((4-methoxypyridin-3-yl)(tetrahydro-2H-pyran-4-yl)methyl)-1-methyl-1,4-dihydropyrazolo[3′,4′:4,5]pyrrolo[3,2-b]pyridin-3-yl)propan-2-ol] |  | 8.25
Cc1cc(F)cc(C)c1C(C)n1c2cc(-c3c(C)nnn3C)cnc2c2c1c(C(C)(C)O)nn2C (centres unmarked) [Compound 27, 2-(6-(1,4-Dimethyl-1H-1,2,3-triazol-5-yl)-4-(1-(4-fluoro-2,6-dimethylphenyl)ethyl)-1-methyl-1,4-dihydropyrazolo[3′,4′:4,5]pyrrolo[3,2-b]pyridin-3-yl)propan-2-ol] | 17 | 
Cc1nnn(C)c1-c1cnc2c3c(c(NS(C)(=O)=O)nn3C)n([C@H](c3ccccc3)C3CCOCC3)c2c1 [Compound 28, (S)—N-(6-(1,4-dimethyl-1H-1,2,3-triazol-5-yl)-1-methyl-4-(phenyl(tetrahydro-2H-pyran-4-yl)methyl)-1,4-dihydropyrazolo[3′,4′:4,5]pyrrolo[3,2-b]pyridin-3-yl)methanesulfonamide] |  | 10.5
Cc1nnn(C)c1-c1cnc2c3c(c(C(C)(C)O)nn3C)n([C@@H](c3ncccc3F)C3CCOCC3)c2c1 [Compound 30, (R)-2-(6-(1,4-dimethyl-1H-1,2,3-triazol-5-yl)-4-((3-fluoropyridin-2-yl)(tetrahydro-2H-pyran-4-yl)methyl)-1-methyl-1,4-dihydropyrazolo[3′,4′:4,5]pyrrolo[3,2-b]pyridin-3-yl)propan-2-ol] | 3 | 
Cc1noc(C)c1-c1cnc2c3c(c(C(C)(C)O)nn3C)n([C@@H](c3ncccc3F)C3CCOCC3)c2c1 [Compound 31, (R)-2-(6-(3,5-dimethylisoxazol-4-yl)-4-((3-fluoropyridin-2-yl)(tetrahydro-2H-pyran-4-yl)methyl)-1-methyl-1,4-dihydropyrazolo[3′,4′:4,5]pyrrolo[3,2-b]pyridin-3-yl)propan-2-ol] | 4.6 | 
Cc1nnn(C)c1-c1cnc2c3c(c(CS(C)(=O)=O)nn3C)n(C(c3ccccc3)C3CCOCC3)c2c1 (centres unmarked) [Compound 33, 6-(1,4-dimethyl-1H-1,2,3-triazol-5-yl)-1-methyl-3-((methylsulfonyl)methyl)-4-(phenyl(tetrahydro-2H-pyran-4-yl)methyl)-1,4-dihydropyrazolo[3′,4′:4,5]pyrrolo[3,2-b]pyridine] | 4.67 | 
CC(=O)N(c1nn(C)c2c3ncc(-c4c(C)nnn4C)cc3n(C(c3ccccc3)C3CCOCC3)c12)S(C)(=O)=O (centres unmarked) [Compound 35, N-(6-(1,4-dimethyl-1H-1,2,3-triazol-5-yl)-1-methyl-4-(phenyl(tetrahydro-2H-pyran-4-yl)methyl)-1,4-dihydropyrazolo[3′,4′:4,5]pyrrolo[3,2-b]pyridin-3-yl)-N-(methylsulfonyl)acetamide] |  | 15.5
